Results reported in US20250296953A1, “3,4-THIAZOLO-STEROIDS AND METHODS OF MAKING AND USING THE SAME” (Arkansas State University - Jonesboro, priority 2018, published 2025).
Read-outs that look alike come from different tables or passages of the source.

Experiments:
SK-MEL-25 = experiment: Melanoma cytotoxicity assay (resazurin); format: cell-based; details: SK-MEL-25 melanoma cells, resazurin
Procedure, shortened: (§1)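 ~4000 cells/well seeded 24 h, then compound added in triplicate for 24 h at 37° C, 5% CO2. Resazurin added for 6 h; fluorescence at 544/590 nm, background-subtracted and normalised to DMSO wells as % viability; IC50 from sigmoidal fit of serial dilutions.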

SK-MEL-28 = experiment: Melanoma cytotoxicity assay (resazurin); format: cell-based; details: SK-MEL-28 melanoma cells, resazurin
Procedure, shortened: as §1

NCI-H522 (NSCLC) = experiment: NCI 60 one dose screen; format: cell-based, human; details: Non-small Cell Lung Cancer
SF-295 = experiment: NCI 60 one dose screen; format: cell-based, human; details: one dose; CNS Cancer; SF-295
[1] = system: 60 different human tumor cell lines; details: for GI50 / TGI: five dose
[2] = 24 hours with compound, concentration not given
[3] = A549/ATCC (Non-small Cell Lung Cancer)
[4] = EKVX (Non-small Cell Lung Cancer)
[5] = HOP-62 (Non-small Cell Lung Cancer)
[6] = HOP-92 (Non-small Cell Lung Cancer)
[7] = MDA-MB-231/ATCC (Breast Cancer)
[8] = NCI-H23 (Non-small Cell Lung Cancer)
[9] = NCI-H226 (Non-small Cell Lung Cancer)
[10] = NCI-H322M (Non-small Cell Lung Cancer)
[11] = NCI-H460 (Non-small Cell Lung Cancer)
[12] = NCI-H522 (Non-small Cell Lung Cancer)

(1S,2R,13R,14S,18S)-7-(3-fluoroanilino)-2,18-dimethyl-6-thia-8-azapentacyclo[11.7.0.02,10.05,9.014,18]icosa-5(9),7,10-trien-17-one [IIa.8]
SK-MEL-25 (% inhibition) (SK-MEL-25; [2]): 88%
IC50 (SK-MEL-25; 24 hours, read-out: SK-MEL-25 (IC50)): 10000 nM
SK-MEL-28 (% inhibition) (SK-MEL-28; [2]): 90%
IC50 (SK-MEL-28; 24 hours): > 20000 nM
Growth Percent (NCI-H522 (NSCLC)): −43.73%
Growth Percent (SF-295): −18.79%
CC50 [1]: > 100000 nM
GI50 ([1]; 786-0 (Renal Cancer)): 1430 nM
TGI ([1]; 786-0 (Renal Cancer)): 2.83E−6
GI50 ([1]; A498 (Renal Cancer)): 2160 nM
TGI ([1]; A498 (Renal Cancer)): 6.77E−6
GI50 [1, 3]: 2580 nM
TGI [1, 3]: 7.50E−6
GI50 ([1]; ACHN (Renal Cancer)): 1780 nM
TGI ([1]; ACHN (Renal Cancer)): 3.24E−6
GI50 ([1]; BT-549 (Breast Cancer)): 1540 nM
TGI ([1]; BT-549 (Breast Cancer)): 3.62E−6
GI50 ([1]; CAKI-1 (Renal Cancer)): 1990 nM
TGI ([1]; CAKI-1 (Renal Cancer)): 5.73E−6
GI50 ([1]; CCRF-CEM (Leukemia)): 1900 nM
TGI ([1]; CCRF-CEM (Leukemia)): >1.00E−4
GI50 ([1]; COLO 205 (Colon Cancer)): 2160 nM
TGI ([1]; COLO 205 (Colon Cancer)): 4.81E−6
GI50 ([1]; DU-145 (Prostate Cancer)): 1930 nM
TGI ([1]; DU-145 (Prostate Cancer)): 4.87E−6
GI50 [1, 4]: 2500 nM
TGI [1, 4]: 1.85E−5
GI50 ([1]; HCC-2998 (Colon Cancer)): 3550 nM
TGI ([1]; HCC-2998 (Colon Cancer)): 1.46E−5
GI50 ([1]; HCT-15 (Colon Cancer)): 1580 nM
TGI ([1]; HCT-15 (Colon Cancer)): 4.08E−6
GI50 ([1]; HCT-116 (Colon Cancer)): 1590 nM
TGI ([1]; HCT-116 (Colon Cancer)): 3.24E−6
GI50 ([1]; HL-60(TB) (Leukemia)): 2730 nM
TGI ([1]; HL-60(TB) (Leukemia)): 8.00E−6
GI50 [1, 5]: 2070 nM
TGI [1, 5]: 5.34E−6
GI50 [1, 6]: 2250 nM
TGI [1, 6]: 4.17E−6
GI50 ([1]; HS 578T (Breast Cancer)): 3140 nM
TGI ([1]; HS 578T (Breast Cancer)): >1.00E−4
GI50 ([1]; HT29 (Colon Cancer)): 1490 nM
TGI ([1]; HT29 (Colon Cancer)): 3.51E−6
GI50 ([1]; IGROV1 (Ovarian Cancer)): 1890 nM
TGI ([1]; IGROV1 (Ovarian Cancer)): 3.83E−6
GI50 ([1]; K-562 (Leukemia)): 1860 nM
GI50 ([1]; KM12 (Colon Cancer)): 3000 nM
TGI ([1]; KM12 (Colon Cancer)): 1.24E−5
GI50 ([1]; LOX IMVI (Melanoma)): 1670 nM
TGI ([1]; LOX IMVI (Melanoma)): 3.21E−6
GI50 ([1]; M14 (Melanoma)): 2360 nM
TGI ([1]; M14 (Melanoma)): 7.23E−6
GI50 ([1]; MALME-3M (Melanoma)): 1940 nM
TGI ([1]; MALME-3M (Melanoma)): 5.04E−6
GI50 ([1]; MCF7 (Breast Cancer)): 1370 nM
TGI ([1]; MCF7 (Breast Cancer)): 3.28E−6
GI50 [1, 7]: 2110 nM
TGI [1, 7]: 4.59E−6
GI50 ([1]; MDA-MB-435 (Melanoma)): 2740 nM
TGI ([1]; MDA-MB-435 (Melanoma)): 1.31E−5
GI50 ([1]; MDA-MB-468 (Breast Cancer)): 2010 nM
TGI ([1]; MDA-MB-468 (Breast Cancer)): 4.18E−6
GI50 ([1]; MOLT-4 (Leukemia)): 1680 nM
TGI ([1]; MOLT-4 (Leukemia)): 2.83E−5
GI50 [1, 8]: 2270 nM
TGI [1, 8]: 9.08E−6
GI50 [1, 9]: 2350 nM
TGI [1, 9]: 5.70E−6
GI50 [1, 10]: 3600 nM
TGI [1, 10]: 2.89E−6
GI50 [1, 11]: 2520 nM
TGI [1, 11]: 5.58E−6
GI50 [1, 12]: 1630 nM
TGI [1, 12]: 3.06E−6
GI50 ([1]; NCI/ADR-RES (Ovarian Cancer)): 2810 nM
TGI ([1]; NCI/ADR-RES (Ovarian Cancer)): 1.72E−5
GI50 ([1]; OVCAR-3 (Ovarian Cancer)): 1720 nM
TGI ([1]; OVCAR-3 (Ovarian Cancer)): 3.30E−6
GI50 ([1]; OVCAR-4 (Ovarian Cancer)): 2710 nM
TGI ([1]; OVCAR-4 (Ovarian Cancer)): >1.00E−4
GI50 ([1]; OVCAR-5 (Ovarian Cancer)): 2730 nM
TGI ([1]; OVCAR-5 (Ovarian Cancer)): 1.80E−5
GI50 ([1]; OVCAR-8 (Ovarian Cancer)): 2790 nM
TGI ([1]; OVCAR-8 (Ovarian Cancer)): 7.98E−6
GI50 ([1]; PC-3 (Prostate Cancer)): 1880 nM
TGI ([1]; PC-3 (Prostate Cancer)): 3.87E−6
GI50 ([1]; RXF 393 (Renal Cancer)): 1450 nM
TGI ([1]; RXF 393 (Renal Cancer)): 3.25E−6
GI50 ([1]; SF-268 (CNS Cancer)): 3090 nM
TGI ([1]; SF-268 (CNS Cancer)): 1.11E−5
GI50 ([1]; SK-MEL-2 (Melanoma)): 1860 nM
